Assays:
[1] = tested on: carrageenin-induced oedema; assay: carrageenin-induced oedema test (anti-inflammatory activity); format: in vivo, albino male Wistar rats
Method: This effect was evaluated by means of an experimental model reproducing acute inflammation: for this purpose the carrageenin- induced oedema test was employed following the method described by C.
Albino male Wistar rats weighing 140-160 g were caged for 10 days at 22±1° C. and given a balanced diet and water ad libitum. Eighteen hours before the experiment the animals were randomized into groups of ten and fasted but with free access to water. Each dose was tested in three groups of rats. Each compound was given either orally, by gavage, or parenterally--intraperitoneal injection--administering as follows:
controls: 0.5% carboxymethylcellulose suspension in physiological saline, 10 ml/kg
treated: suspension of the compounds to be tested in the same vehicle and at the same volume (10 ml/kg) used for the controls at the doses specified below.
One hour after administration of the compounds and vehicle, in order to provoke the oedema for determining the protective effect of the substances under examination, each rat received, by subcutaneous injection into the plantar surface of the left paw, 0.1 ml of 1% sterile carrageenin suspension.

[2] = tested on: phenyl-p-quinone-induced writhing (abdominal contractions); assay: phenylquinone-induced writhing test (analgesic activity), compound given 30 min before phenyl-p-quinone; format: in vivo, male Wistar rats
Method: Male Wistar rats weighing 110±5 g were caged for 10 days at 22±1° C. and given a balanced diet with free access to water. Twenty-four hours before the experiment the animals were randomized into groups of 10 and fasted for 14 hours but with free access to water. Each dose was tested in 3 groups of rats. Thirty minutes following administration either orally or parenterally of the products to be tested and the vehicle alone (0.5% carboxymethyl-cellulose in physiological saline) in the control animals, each rat was given 2 ml of a 5% absolute ethanol aqueous solution containing 0.36% of phenyl-p-quinone (Sigma Chemical Company) in order to provoke writhings. Fifteen minutes after administration of phenyl-p-quinone the number of contractions were counted for 20 minutes. The inhibiting effect of the compounds under examination on the abdominal contractions induced by phenyl-p-quinone was calculated by the following formula: % protection= [formula]
Table V lists the tested compounds, doses, routes of administration and their efficacy expressed as percentage of protection, taking into account that phenyl-p-quinone was administered thirty minutes after the compounds.

[3] = tested on: mucus secreted by the respiratory airway; assay: antisecretory activity, respiratory mucus secretion; format: in vivo, albino male New Zealand rabbits; settings: vs control group
Method: The experiment was carried out in accordance with the method described by Y. Kase (Folia Pharmacol. Jap. 73: 605, 1977) for the purpose of investigating whether or not the compounds under examination determine changes in the volume of the mucus secreted by the respiratory airway. Groups of four albino male New Zealand rabbits (mean weight: 2.5 kg) were used for testing each dose per single group. The animals were anesthetized with urethane (1.1 g/ks b.w.) via the intraperitoneal route and a Y cannula was inserted into the trachea. In order to stimulate mucous secretion a humidifier was connected to the cannula permitting the animals to spontaneously breathe air with 100% humidity at a constant temperature of 39° C. The secreted mucus was collected through another opening in the cannula and measured at three and six hours after administration of the compounds under examination or of the vehicle alone administered in the order of […] (controls). Calculation of the increase or decrease in mucous secretion was based upon the percentage differences between the groups treated with the compounds under examination and the control group. Table VII gives the percentage differences in mucous secretion, and the tested compounds with relative doses and routes of administration.

[4] = tested on: cough provoked by mechanical stimulation of the tracheal bifurcation mucosa; assay: antitussive activity, mechanically provoked coughing; format: in vivo, albino Guinea-pigs; settings: 1 h after administration
Method: The antitussive effect on albino Guinea-pigs weighing 300 g was evaluated using the method described by Y. Kase (Selected Pharmacological Testing Methods, p.363, Marcel Dekker Inc., New York, 1968). Each dose was tested in a group of animals with a Y cannula inserted into the trachea. In order to provoke coughing, the mucosa of the tracheal bifurcation was mechanically stimulated by insertion of a wild boar's hair through an opening in the cannula, while the other opening was connected to a kymograph to plot the amplitude and/or frequency. The reduction in the number of coughs was evaluated at one hour after administration of the compounds under examination by following the plottings for twenty minutes and comparing the response of the control animals.

[5] = 50 mg/Kg, Table IV (route not given), 2 h
[6] = 50 mg/Kg, Table IV (route not given), 4 h
[7] = 50 mg/Kg, Table IV (route not given), 6 h
[8] = 50 mg/Kg, Table IV (route not given), 24 h
[9] = 50 mg/Kg, Table IV (route not given), 48 h
[10] = 50 mg/Kg, Table IV (route not given), 72 h
[11] = 100 mg/Kg, Table IV (route not given), 2 h
[12] = 100 mg/Kg, Table IV (route not given), 4 h
[13] = 100 mg/Kg, Table IV (route not given), 6 h
[14] = 100 mg/Kg, Table IV (route not given), 24 h
[15] = 100 mg/Kg, Table IV (route not given), 48 h
[16] = 100 mg/Kg, Table IV (route not given), 72 h

CCOC(=O)c1ccc(NC(=O)Cc2ccc(C(=O)c3ccc(C)cc3)n2C)cc1 [Compound 1-h, 1-methyl-5-p-toluoylpyrrole-2-N-(4-carboxyethyl-phenyl) acetamide]
oedema % inhibition ([1]; 25 mg/Kg per os, 2 h): 28.9% | oedema % inhibition ([1]; 25 mg/Kg per os, 4 h): 30.1% | oedema % inhibition ([1]; 25 mg/Kg per os, 6 h): 29.0% | oedema % inhibition ([1]; 25 mg/Kg per os, 24 h): 8.3% | oedema % inhibition ([1]; 25 mg/Kg per os, 48 h): 0.0% | oedema % inhibition ([1]; 25 mg/Kg per os, 72 h): 0.0% | oedema % inhibition ([1]; 25 mg/Kg, Table IV (route not given), 2 h): 30.1% | oedema % inhibition ([1]; 25 mg/Kg, Table IV (route not given), 4 h): 27.9% | oedema % inhibition ([1]; 25 mg/Kg, Table IV (route not given), 6 h): 29.0% | oedema % inhibition ([1]; 25 mg/Kg, Table IV (route not given), 24 h): 13.0% | oedema % inhibition ([1]; 25 mg/Kg, Table IV (route not given), 48 h): 0.0% | oedema % inhibition ([1]; 25 mg/Kg, Table IV (route not given), 72 h): 0.0% | oedema % inhibition ([1]; 50 mg/Kg per os, 2 h): 48.9% | oedema % inhibition ([1]; 50 mg/Kg per os, 4 h): 49.0% | oedema % inhibition ([1]; 50 mg/Kg per os, 6 h): 47.1% | oedema % inhibition ([1]; 50 mg/Kg per os, 24 h): 9.9% | oedema % inhibition ([1]; 50 mg/Kg per os, 48 h): 0.0% | oedema % inhibition ([1]; 50 mg/Kg per os, 72 h): 0.0% | oedema % inhibition [1, 5]: 50.2% | oedema % inhibition [1, 6]: 51.0% | oedema % inhibition [1, 7]: 47.0% | oedema % inhibition [1, 8]: 15.1% | oedema % inhibition [1, 9]: 0.0% | oedema % inhibition [1, 10]: 0.0% | oedema % inhibition ([1]; 100 mg/Kg per os, 2 h): 66.9% | oedema % inhibition ([1]; 100 mg/Kg per os, 4 h): 67.1% | oedema % inhibition ([1]; 100 mg/Kg per os, 6 h): 69.0% | oedema % inhibition ([1]; 100 mg/Kg per os, 24 h): 22.0% | oedema % inhibition ([1]; 100 mg/Kg per os, 48 h): 13.0% | oedema % inhibition ([1]; 100 mg/Kg per os, 72 h): 0.0% | oedema % inhibition [1, 11]: 70.1% | oedema % inhibition [1, 12]: 68.9% | oedema % inhibition [1, 13]: 66.0% | oedema % inhibition [1, 14]: 19.0% | oedema % inhibition [1, 15]: 10.0% | oedema % inhibition [1, 16]: 0.0% | % Protection ([2]; 5 mg/Kg i.p.): 18.0% | % Protection ([2]; 5 mg/Kg per os): 16.2% | % Protection ([2]; 10 mg/Kg i.p.): 44.0% | % Protection ([2]; 10 mg/Kg per os): 37.9% | % Protection ([2]; 20 mg/Kg i.p.): 79.0% | % Protection ([2]; 20 mg/Kg per os): 70.1% | % difference in mucus secretion ([3]; 50 mg/Kg i.p., 3 h): -8% | % difference in mucus secretion ([3]; 50 mg/Kg i.p., 6 h): -3% | % difference in mucus secretion ([3]; 50 mg/Kg per os, 3 h): -5% | % difference in mucus secretion ([3]; 50 mg/Kg per os, 6 h): 0.0% | % difference in mucus secretion ([3]; 75 mg/Kg i.p., 3 h): -26% | % difference in mucus secretion ([3]; 75 mg/Kg i.p., 6 h): -20% | % difference in mucus secretion ([3]; 75 mg/Kg per os, 3 h): -19% | % difference in mucus secretion ([3]; 75 mg/Kg per os, 6 h): -16% | % difference in mucus secretion ([3]; 100 mg/Kg i.p., 3 h): -41% | % difference in mucus secretion ([3]; 100 mg/Kg i.p., 6 h): -38% | % difference in mucus secretion ([3]; 100 mg/Kg per os, 3 h): -39% | % difference in mucus secretion ([3]; 100 mg/Kg per os, 6 h): -32% | % inhibition, cough amplitude ([4]; 50 mg/Kg i.p.): 20% | % inhibition, cough frequency ([4]; 50 mg/Kg i.p.): 18% | % inhibition, cough amplitude ([4]; 50 mg/Kg per os): 13% | % inhibition, cough frequency ([4]; 50 mg/Kg per os): 10% | % inhibition, cough amplitude ([4]; 75 mg/Kg i.p.): 29% | % inhibition, cough frequency ([4]; 75 mg/Kg i.p.): 35% | % inhibition, cough amplitude ([4]; 75 mg/Kg per os): 22% | % inhibition, cough frequency ([4]; 75 mg/Kg per os): 18% | % inhibition, cough amplitude ([4]; 100 mg/Kg i.p.): 45% | % inhibition, cough frequency ([4]; 100 mg/Kg i.p.): 53% | % inhibition, cough amplitude ([4]; 100 mg/Kg per os): 40% | % inhibition, cough frequency ([4]; 100 mg/Kg per os): 50%

Cc1ccc(C(=O)c2ccc(CC(=O)O)n2C)cc1 [Tolmetin Na.2H2 O, 1-methyl-5-p-toluoylpyrrole-2-acetic acid, reference compound]
oedema % inhibition ([1]; 10 mg/Kg per os, 2 h): 44.8% | oedema % inhibition ([1]; 10 mg/Kg per os, 4 h): 29.2% | oedema % inhibition ([1]; 10 mg/Kg per os, 6 h): 10.2% | oedema % inhibition ([1]; 10 mg/Kg per os, 24 h): 0.0% | oedema % inhibition ([1]; 10 mg/Kg per os, 48 h): 0.0% | oedema % inhibition ([1]; 10 mg/Kg per os, 72 h): 0.0% | oedema % inhibition ([1]; 10 mg/Kg, Table IV (route not given), 2 h): 46.0% | oedema % inhibition ([1]; 10 mg/Kg, Table IV (route not given), 4 h): 39.1% | oedema % inhibition ([1]; 10 mg/Kg, Table IV (route not given), 6 h): 20.0% | oedema % inhibition ([1]; 10 mg/Kg, Table IV (route not given), 24 h): 0.0% | oedema % inhibition ([1]; 10 mg/Kg, Table IV (route not given), 48 h): 0.0% | oedema % inhibition ([1]; 10 mg/Kg, Table IV (route not given), 72 h): 0.0% | oedema % inhibition ([1]; 50 mg/Kg per os, 2 h): 48.0% | oedema % inhibition ([1]; 50 mg/Kg per os, 4 h): 55.3% | oedema % inhibition ([1]; 50 mg/Kg per os, 6 h): 55.2% | oedema % inhibition ([1]; 50 mg/Kg per os, 24 h): 0.0% | oedema % inhibition ([1]; 50 mg/Kg per os, 48 h): 0.0% | oedema % inhibition ([1]; 50 mg/Kg per os, 72 h): 0.0% | oedema % inhibition [1, 5]: 53.8% | oedema % inhibition [1, 6]: 60.0% | oedema % inhibition [1, 7]: 58.4% | oedema % inhibition [1, 8]: 0.0% | oedema % inhibition [1, 9]: 0.0% | oedema % inhibition [1, 10]: 0.0% | oedema % inhibition ([1]; 100 mg/Kg per os, 2 h): 50.8% | oedema % inhibition ([1]; 100 mg/Kg per os, 4 h): 57.3% | oedema % inhibition ([1]; 100 mg/Kg per os, 6 h): 54.8% | oedema % inhibition ([1]; 100 mg/Kg per os, 24 h): 9.7% | oedema % inhibition ([1]; 100 mg/Kg per os, 48 h): 7.8% | oedema % inhibition ([1]; 100 mg/Kg per os, 72 h): 0.0% | oedema % inhibition [1, 11]: 57.0% | oedema % inhibition [1, 12]: 66.0% | oedema % inhibition [1, 13]: 67.1% | oedema % inhibition [1, 14]: 8.7% | oedema % inhibition [1, 15]: 2.0% | oedema % inhibition [1, 16]: 0.0% | % Protection ([2]; 10 mg/Kg per os): 40.0% | % difference in mucus secretion ([3]; 50 mg/Kg i.p., 3 h): +3% | % difference in mucus secretion ([3]; 50 mg/Kg i.p., 6 h): +7% | % difference in mucus secretion ([3]; 50 mg/Kg per os, 3 h): +5% | % difference in mucus secretion ([3]; 50 mg/Kg per os, 6 h): +10% | % difference in mucus secretion ([3]; 75 mg/Kg i.p., 3 h): +8% | % difference in mucus secretion ([3]; 75 mg/Kg i.p., 6 h): +10% | % difference in mucus secretion ([3]; 75 mg/Kg per os, 3 h): 0.0% | % difference in mucus secretion ([3]; 75 mg/Kg per os, 6 h): +2% | % difference in mucus secretion ([3]; 100 mg/Kg i.p., 3 h): +7% | % difference in mucus secretion ([3]; 100 mg/Kg i.p., 6 h): 0.0% | % difference in mucus secretion ([3]; 100 mg/Kg per os, 3 h): +5% | % difference in mucus secretion ([3]; 100 mg/Kg per os, 6 h): 0.0% | % inhibition, cough amplitude ([4]; 50 mg/Kg i.p.): 0% | % inhibition, cough frequency ([4]; 50 mg/Kg i.p.): 0% | % inhibition, cough amplitude ([4]; 50 mg/Kg per os): 0% | % inhibition, cough frequency ([4]; 50 mg/Kg per os): 0% | % inhibition, cough amplitude ([4]; 75 mg/Kg i.p.): 0% | % inhibition, cough frequency ([4]; 75 mg/Kg i.p.): 10% | % inhibition, cough amplitude ([4]; 75 mg/Kg per os): 7% | % inhibition, cough frequency ([4]; 75 mg/Kg per os): 0% | % inhibition, cough amplitude ([4]; 100 mg/Kg i.p.): 7% | % inhibition, cough frequency ([4]; 100 mg/Kg i.p.): 10% | % inhibition, cough amplitude ([4]; 100 mg/Kg per os): 5% | % inhibition, cough frequency ([4]; 100 mg/Kg per os): 5%

Source: patent US4882349A, “Pyrrolacetic amides having antiinflammatory activity” (priority 1982, dated 1989)
